Values belong to the molecule of their own block, whether it stands above or below them. Residues, ends and D or L forms follow the SMILES beside them. *: point of attachment. Fmoc = O=C(OCC1c2ccccc2-c2ccccc21)*; Boc = CC(C)(C)OC(=O)*
Columns and labels:
[1] = Incorporation of low molecular weight drugs into Fmoc-Leu-Asp gels; assay type: physicochemical; conditions: Fmoc-Leu-Asp gel 10 mg/ml=21 mM
Description: (§1) The low molecular weight drugs 3,5-dimethyl-1-adamantanamine hydrochloride (Ada2Me) and 5-methyl-1-adamantanamine 3-carboxylic acid (AdaMeC) can also be incorporated into the Fmoc-Leu-Asp gels (10 mg/ml=21 mM) at concentrations of […] and 33 mM, respectively. At higher total concentrations, (>5 mM Ada2Me or >33 mM AdaMeC) these agents inhibit gelation. […] Fmoc-Leu-Asp alone produced antibodies with titers no greater than 1:4.

rabbits = assay: Immunization of rabbits, antibody titers (double diffusion in agarose gel, reverse radial diffusion, passive hemagglutination); assay type: in vivo, rabbit; conditions: for production of specific antibodies, injected alone: rabbits, Ada2Me 5 mM, AdaMeC 33 mM
Description: as §1
Female random-bred rabbits were immunized three times, at weekly intervals and bled on the 24th day. A full dose was used for the first two immunizations, and a half of the full dose for the third immunization. Full doses of the BSA conjugates were 100 μg total protein. Before injections, AdaMeC-BSA and AdaMeC-Bal-BSA solutions were diluted with equal volumes of complete Freund's adjuvant, but AdaMeC+dipeptide gel was diluted with an equal volume of 0.01M phosphate buffer; pH 7.4. The volume of immunogen solutions injected each time was 1 ml. Immune sera were analyzed by two immunoprecipitation assays, the double diffusion in agarose gel and the reverse radial immunodiffusion, as described by Oudin, J. Meth. Enzymol., 70, 166-98 (1980). As shown in FIG. 8A double diffusion in agarose was used to determine the titer of antibodies recognizing AdaMeC-containing conjugates in sera of rabbits immunized with AdaMeC-coupled with or without a beta-alanine (Bal) spacer to BSA in complete Freunds adjuvant or with AdaMeC mixed with Fmoc-Leu-Asp without adjuvant. The antisera were tested against each of the three immunogens and compared to sera of rabbits injected with either AdaMeC or Fmoc-Leu-Asp-alone. And as shown in FIG. 8B the passive hemagglutination test, as described in Adler, F. L. & Adler, L. T., Meth. Enzymol., 70, 455-66 (1980), was used to analyze antisera of rabbits immunized with each of the three AdaMeC conjugates after challenge with the three AdaMeC conjugates, AdaMeC alone or Ada2Me. In the first two assays, the solid phase was 1% agarose containing 0.8% sodium chloride. The sample volumes were 25 μl. The probes were incubated for 72 h at 37° C. […]

[2] = methanol and cyclohexane; cited from earlier work
[3] = Aqueous gel formation of Fmoc-protected peptides; assay type: physicochemical; conditions: for Gel formed / Gel formed (minimum conc., %): aqueous gels
Description: Aqueous gels of the synthesized compounds can be made by several methods which are outlined here and more fully described in the examples.
1. Finely ground dipeptide or tripeptide compound is suspended in boiling water, the mixture is briefly and vigorously mixed or shaken and left to cool. Between 50-60° C. gelation occurrs. This procedure can be repeated to obtain a more homogeneous mixture and a stronger gel.
2. The dipeptide or tripeptide compound is dissolved in a minimal volume of organic solvent which is miscible in water, and at room temperature a small volume of the solution is added to a large volume of water with rapid mixing, after which the gel forms.
3. Methods 1 and 2 can be combined.
(§2) Boil 10 ml water and suspend in it 0.8% finely ground compound 5 of Table 2. Strongly shake or stir the suspension then let stand 10-15 minutes. On cooling the solution becomes turbid at 50-60° C. and at room temperature a gel forms. The gel can be reheated, agitated and recooled. When repeated several times, a stronger gel forms.

[4] = Low strain oscillatory rheology (Rheometrics RFSII); assay type: physicochemical
Description: (triangles.) and 20° C. (circles). Other experimental conditions are as described for FIG. 6B.
Other experimental conditions and symbols are as described for FIG. 6C.
Of particular interest in this invention are the gels formed with Fmoc-Leu-Asp. At concentrations between 1 mg/ml and 1.5 mg/ml solutions of Fmoc-Leu-Asp undergo an abrupt increase in light scattering at both 20° C. and 60° C., as shown in FIG. 6A wherein 1 ml solutions in 1 cm diameter cylindrical cells were measured with a Brookhaven Instruments BI30ATN apparatus using a 633 nm 10 mW laser. When a solution of 2 mg/ml dipeptide is cooled from 100° C. to 60° C., viscoelastic parameters characteristic of a gel are obtained by low strain oscillatory measurements. The storage shear storage modulus, G', a measure of the elastic strength of the material, reaches a stable level of 80 Pa within several minutes (FIG. 6B). These measurements were made using a Rheometrics RFSII instrument1. The maximal shear strain was 1% for oscillatory deformation at a frequency of 1 rad/s. […] NY Acad. Sci. 408, 1-10, (1983) or F-actin, as shown in Janmey P. A. et al., Biochemistry 27, 8218-8227 (1988). […] G', shear storage modulus, depends weakly on frequency from 0.1 to 100 rad/s, and is much larger than the shear loss modulus G" (FIG. 6C). […]

[5] = Shear modulus by free oscillations using a torsion pendulum; assay type: physicochemical
Description: From this curve is calculated the shear modulus G^1.
The shear modulus was measured by free oscillations using a torsion pendulum. The theory and description of the method are described in Plazek D., Vrancke., Berge J., Trans. Soc. Rheol. 2, 38-47 (1958); Ferry J. Viscoelastic Properties of Polymers, Wiley New York (1980), and Janmey P., et al., J. Rheol. 27, 135-153 (1993). Gels are formed by method 1 using Tris buffer pH7.4. The peptide concentration in FIG. 1 is 2.5 mg/ml (0.25%). […] This denotes the moderately high elastic strength of this gel.

[6] = Solubility in water (Example 2); assay type: physicochemical
Description: as §2
Compound 5 is soluble below 0.8%. At concentrations below 0.4% little or no gel forms. When such a solution is evaporated to 50% volume and then heated and cooled, a gel forms.

[7] = Preparation of gels in ethylether; assay type: physicochemical; conditions: diethylether gel, -5° C.
Description: Suspend 150-200 mg finely ground compound 5 of table 2 in 10 mL boiling diethylether. Shake suspension, filter and let sit 30-60 minutes at -5° C. On cooling a gel forms. The peptide concentration can be measured by weighing the gel, and evaporating the solvent in vacuum to a constant weight. In this way a solute concentration of 1-1.2% was found.

[8] = Gel drying (evaporation of water); assay type: physicochemical
Description: Gels containing either 0.5-0.6% or 0.8% compound 5, gelatin, or starch are disolved in water at 90° C. and briefly cooled. The solutions (0.8 ml) are poured into shallow plastic dishes (17 mm inner diameter). On reaching room temperature, the dishes are weighed and left with desicants but without vacuum to dry. […] After 15 hours, the compound 5 gel has lost 57% of its water, but the gelatine and starch solutions have lost 70% and 87% of their water, respectively.

[9] = chloroform; cited from earlier work

SMILES: CC12CC3CC(C)(C1)CC(N)(C3)C2.Cl [Ada2Me, 3,5-dimethyl-1-adamantanamine hydrochloride]
concentration incorporated into Fmoc-Leu-Asp gels [1]: 1 mM
total concentration that inhibits gelation [1]: > 5 mM
production of specific antibodies, injected alone (rabbits): neither Ada2Me (5 mM) nor AdaMeC (33 mM) produced specific antibodies

SMILES: CC12CC3CC(N)(C1)CC(C(=O)O)(C3)C2.Cl (stereo not shown) [AdaMeC, 5-methyl-1-adamantanamine 3-carboxylic acid hydrochloride]
concentration incorporated into Fmoc-Leu-Asp gels [1]: 33 mM
total concentration that inhibits gelation [1]: > 33 mM
production of specific antibodies, injected alone (rabbits): neither Ada2Me (5 mM) nor AdaMeC (33 mM) produced specific antibodies

SMILES: CCCCCCCCCCCCCCCC(=O)c1ccc(OC(=O)[C@H](C)NC(=O)OCc2ccccc2)c([N+](=O)[O-])c1 [N-benzyl-oxycarbonyl L-alanine 4-hexadecanoyl-2nitrophenyl ester]
concentration at which thermally reversible gels form [2]: below 1%

SMILES: NC12CC3CC(CC(C3)C1)C2 [adamantamine]
antibody production in rabbits (rabbits; trapped in Fmoc-Leu-Asp gels without additional adjuvant, versus covalently linked to BSA and injected with adjuvant): at least as efficiently

Gel formed [3]: Yes
Gel formed (minimum conc., %) [3]: 0.4%
SMILES: CC[C@H](C)[C@H](NC(=O)OCC1c2ccccc2-c2ccccc21)C(=O)N[C@@H](CC(=O)O)C(=O)O [compound 2, Fmoc--ile--Asp] (Fmoc-Ile-Asp-OH)

gel formation with boric acid ([3]; 0.8% in 3.5% boric acid in boiling water, on cooling): a gel forms
temperature at which the solution becomes turbid on cooling ([3]; 0.8% in boiled water): 50-60 °C
Gel formed [3]: Yes
Gel formed (minimum conc., %) [3]: 0.5%
gel formation in glycerol solution ([3]; solutions of 70% glycerol): forms gels
concentration at which little or no gel forms ([3]; water): below 0.4%
storage shear modulus G' ([4]; 2 mg/ml, cooled from 100° C. to 60° C., 1% maximal shear strain, 1 rad/s, stable level within several minutes): 80 Pa
fall of both shear moduli (G', G") on strain, factor ([4]; samples strained to 10%): 100
shear modulus ([5]; 2.5 mg/ml (0.25%), Tris buffer pH7.4, gel formed by method 1): 3.1 Pa
saturation concentration ([5]; Tris buffer pH7.4): ~5 mg/mL
concentration at which soluble in water [6]: below 0.8%
solute concentration in the gel [7]: 1-1.2%
gel formation on cooling ([8]; 0.5-0.6% or 0.8% in water dissolved at 90° C.): forms a gel on cooling
water lost ([8]; after 15 hours, with desicants, without vacuum, room temperature): 57%
SMILES: CC(C)C[C@H](NC(=O)OCC1c2ccccc2-c2ccccc21)C(=O)N[C@@H](CC(=O)O)C(=O)O [compound 5, Fmoc--Leu--Asp] (Fmoc-Leu-Asp-OH)

SMILES: CC[C@H](C)[C@H](NC(=O)[C@@H](NC(=O)[C@@H](NC(=O)OC(C)(C)C)C(C)C)C(C)C)C(=O)OC [t-butoxycarbonyl-valyl-valylisoleucine methylester] (Boc-Val-Val-Ile-OMe)
critical micelle concentration [9]: 2.5 mM

Source: patent publication US5955434A, “Gel-forming polypeptide derivatives” (Brigham & Women's Hospital, priority 1996, dated 1999)
